Reference: ChEMBL document CHEMBL3784933, “Synthesis and antitumor evaluation of trimethoxyanilides based on 4(3H)-quinazolinone scaffolds” (2016)

Tests used:
Type in all cases: functional
[1] = Cytotoxicity against human OVCAR4 cells assessed as growth inhibition at 10 uM after 48 hrs by SRB assay; details: OVCAR-4, 48 h, read-out: GI
[2] = Cytotoxicity against human Caki1 cells assessed as growth inhibition at 10 uM after 48 hrs by SRB assay; details: CAKI-1, 48 h, read-out: GI
[3] = Cytotoxicity against human SF295 cells assessed as growth inhibition at 10 uM after 48 hrs by SRB assay; details: SF-295, 48 h, read-out: GI
[4] = Cytotoxicity against human UACC62 cells assessed as growth inhibition at 10 uM after 48 hrs by SRB assay; details: UACC-62, 48 h, read-out: GI
[5] = test system: A498; assay: Cytotoxicity against human A498 cells assessed as growth inhibition at 10 uM after 48 hrs by SRB assay; details: A498, 48 h, read-out: GI
[6] = Cytotoxicity against human NCI-ADR-RES cells assessed as growth inhibition at 10 uM after 48 hrs by SRB assay; details: read-out: GI
[7] = test system: CCRF-CEM; assay: Cytotoxicity against human CCRF-CEM cells assessed as growth inhibition at 10 uM after 48 hrs by SRB assay; details: read-out: GI
[8] = test system: Malme-3M; assay: Cytotoxicity against human MALME-3M cells assessed as growth inhibition at 10 uM after 48 hrs by SRB assay; details: read-out: GI
[9] = Cytotoxicity against human Hs 578T cells assessed as growth inhibition at 10 uM after 48 hrs by SRB assay; details: read-out: GI
[10] = Cytotoxicity against human SNB75 cells assessed as growth inhibition at 10 uM after 48 hrs by SRB assay; details: SNB-75, 48 h, read-out: GI
[11] = test system: A549; assay: Cytotoxicity against human A549 cells assessed as growth inhibition at 10 uM after 48 hrs by SRB assay; details: A549, 48 h, read-out: GI
[12] = test system: MDA-MB-231; assay: Cytotoxicity against human MDA-MB-231 cells assessed as growth inhibition at 10 uM after 48 hrs by SRB assay; details: MDA-MB-231, 48 h, read-out: GI
[13] = Cytotoxicity against human UO31 cells assessed as growth inhibition at 10 uM after 48 hrs by SRB assay; details: UO-31, 48 h, read-out: GI
[14] = Cytotoxicity against human BT549 cells assessed as growth inhibition at 10 uM after 48 hrs by SRB assay; details: BT-549, 48 h, read-out: GI
[15] = test system: EKVX; assay: Cytotoxicity against human EKVX cells assessed as growth inhibition at 10 uM after 48 hrs by SRB assay; details: read-out: GI
[16] = Cytotoxicity against human SF268 cells assessed as growth inhibition at 10 uM after 48 hrs by SRB assay; details: SF-268, 48 h, read-out: GI
[17] = Cytotoxicity against human PC3 cells assessed as growth inhibition at 10 uM after 48 hrs by SRB assay; details: PC-3, 48 h, read-out: GI
[18] = test system: SK-MEL-5; assay: Cytotoxicity against human SK-MEL-5 cells assessed as growth inhibition at 10 uM after 48 hrs by SRB assay; details: SK-MEL-5, 48 h, read-out: GI
[19] = test system: T47D; assay: Cytotoxicity against human T47D cells assessed as growth inhibition at 10 uM after 48 hrs by SRB assay; details: read-out: GI
[20] = Cytotoxicity against human LOXIMVI cells assessed as growth inhibition at 10 uM after 48 hrs by SRB assay; details: LOX IMVI, read-out: GI
[21] = test system: NCI-H522; assay: Cytotoxicity against human NCI-H522 cells assessed as growth inhibition at 10 uM after 48 hrs by SRB assay; details: NCI-H522, 48 h, read-out: GI
[22] = Cytotoxicity against human HOP62 cells assessed as growth inhibition at 10 uM after 48 hrs by SRB assay; details: HOP-62, 48 h, read-out: GI
[23] = Cytotoxicity against human RPMI8226 cells assessed as growth inhibition at 10 uM after 48 hrs by SRB assay; details: RPMI-8226, 48 h, read-out: GI
[24] = test system: SN12C; assay: Cytotoxicity against human SN12C cells assessed as growth inhibition at 10 uM after 48 hrs by SRB assay; details: read-out: GI
[25] = test system: U-251; assay: Cytotoxicity against human U251 cells assessed as growth inhibition at 10 uM after 48 hrs by SRB assay; details: U-251, 48 h, read-out: GI
[26] = test system: ACHN; assay: Cytotoxicity against human ACHN cells assessed as growth inhibition at 10 uM after 48 hrs by SRB assay; details: read-out: GI
[27] = Cytotoxicity against human MOLT4 cells assessed as growth inhibition at 10 uM after 48 hrs by SRB assay; details: MOLT-4, 48 h, read-out: GI
[28] = test system: K562; assay: Cytotoxicity against human K562 cells assessed as growth inhibition at 10 uM after 48 hrs by SRB assay; details: K562, 48 h, read-out: GI
[29] = test system: SR; assay: Cytotoxicity against human SR cells assessed as growth inhibition at 10 uM after 48 hrs by SRB assay; details: read-out: GI
[30] = test system: MCF7; assay: Cytotoxicity against human MCF7 cells assessed as growth inhibition at 10 uM after 48 hrs by SRB assay; details: MCF7, 48 h, read-out: GI
[31] = Cytotoxicity against human HOP92 cells assessed as growth inhibition at 10 uM after 48 hrs by SRB assay; details: HOP-92, 48 h, read-out: GI
[32] = Cytotoxicity against human HCT116 cells assessed as growth inhibition at 10 uM after 48 hrs by SRB assay; details: HCT-116, 48 h, read-out: GI
[33] = test system: 786-0; assay: Cytotoxicity against human 786-0 cells assessed as growth inhibition at 10 uM after 48 hrs by SRB assay; details: 786-0, 48 h, read-out: GI
[34] = Cytotoxicity against human NCI-H322 cells assessed as growth inhibition at 10 uM after 48 hrs by SRB assay; details: NCI-H322, 48 h, read-out: GI
[35] = Cytotoxicity against human HCT15 cells assessed as growth inhibition at 10 uM after 48 hrs by SRB assay; details: HCT-15, 48 h, read-out: GI
[36] = Cytotoxicity against human RXF393 cells assessed as growth inhibition at 10 uM after 48 hrs by SRB assay; details: RXF 393, 48 h, read-out: GI
[37] = test system: NCI-H226; assay: Cytotoxicity against human NCI-H226 cells assessed as growth inhibition at 10 uM after 48 hrs by SRB assay; details: NCI-H226, 48 h, read-out: GI
[38] = Cytotoxicity against human SF539 cells assessed as growth inhibition at 10 uM after 48 hrs by SRB assay; details: SF-539, 48 h, read-out: GI
[39] = test system: MDA-MB-468; assay: Cytotoxicity against human MDA-MB-468 cells assessed as growth inhibition at 10 uM after 48 hrs by SRB assay; details: MDA-MB-468, 48 h, read-out: GI
[40] = Cytotoxicity against human SNB19 cells assessed as growth inhibition at 10 uM after 48 hrs by SRB assay; details: SNB-19, 48 h, read-out: GI
[41] = Cytotoxicity against human UACC257 cells assessed as growth inhibition at 10 uM after 48 hrs by SRB assay; details: UACC-257, 48 h, read-out: GI

In the case of `COc1cc(NC(=O)CSc2nc3ccc(Cl)cc3c(=O)n2-c2ccccc2)cc(OC)c1OC`, the inhibition of growth at 10 µM [1] is reported as 15%, the inhibition of growth at 10 µM [2] is reported as 17% and the inhibition of growth at 10 µM [3] is reported as 13%. It also gave an inhibition of growth at 10 µM [4] of 25%, an inhibition of growth at 10 µM [5] of 54% and an inhibition of growth at 10 µM [6] of 10%. The inhibition of growth at 10 µM [7] was 30%, the inhibition of growth at 10 µM [8] was 12% and the inhibition of growth at 10 µM [9] was 19%. It also gave an inhibition of growth at 10 µM [10] of 29%, an inhibition of growth at 10 µM [11] of 12% and an inhibition of growth at 10 µM [12] of 17%. For the same molecule, the inhibition of growth at 10 µM [13] was 50%, the inhibition of growth at 10 µM [14] was 22% and the inhibition of growth at 10 µM [15] was 24%. It also gave an inhibition of growth at 10 µM [16] of 10%, an inhibition of growth at 10 µM [17] of 20% and an inhibition of growth at 10 µM [18] of 17%. It also gave an inhibition of growth at 10 µM [19] of 15%, an inhibition of growth at 10 µM [20] of 10% and an inhibition of growth at 10 µM [21] of 16%. The inhibition of growth at 10 µM [22] was 15%.
In the case of `COc1cc(NC(=O)CCSc2nc3ccccc3c(=O)n2-c2ccccc2)cc(OC)c1OC`, the inhibition of growth at 10 µM [1] is reported as 24%, the inhibition of growth at 10 µM [2] is reported as 22% and the inhibition of growth at 10 µM [23] is reported as 36%. For the same molecule, the inhibition of growth at 10 µM [3] was 13%, the inhibition of growth at 10 µM [4] was 17% and the inhibition of growth at 10 µM [5] was 46%. For the same molecule, the inhibition of growth at 10 µM [7] was 19%, the inhibition of growth at 10 µM [11] was 15% and the inhibition of growth at 10 µM [24] was 18%. The inhibition of growth at 10 µM [12] was 41%, the inhibition of growth at 10 µM [25] was 10% and the inhibition of growth at 10 µM [13] was 44%. For the same molecule, the inhibition of growth at 10 µM [17] was 39%, the inhibition of growth at 10 µM [26] was 18% and the inhibition of growth at 10 µM [19] was 23%. The inhibition of growth at 10 µM [27] was 15%, the inhibition of growth at 10 µM [20] was 10% and the inhibition of growth at 10 µM [28] was 31%. For the same molecule, the inhibition of growth at 10 µM [21] was 49%, the inhibition of growth at 10 µM [29] was 17% and the inhibition of growth at 10 µM [30] was 16%.
With `COc1cc2nc(SCC(=O)Nc3cc(OC)c(OC)c(OC)c3)n(-c3ccc(F)cc3)c(=O)c2cc1OC` the inhibition of growth at 10 µM [4] was 18%, the inhibition of growth at 10 µM [7] was 15% and the inhibition of growth at 10 µM [13] was 38%. For the same molecule, the inhibition of growth at 10 µM [19] was 20%, the inhibition of growth at 10 µM [20] was 14% and the inhibition of growth at 10 µM [21] was 15%.
Work on `COc1cc2nc(SCCC(=O)Nc3cc(OC)c(OC)c(OC)c3)n(-c3ccc(F)cc3)c(=O)c2cc1OC` yielded an inhibition of growth at 10 µM [5] of 22%, an inhibition of growth at 10 µM [25] of 12% and an inhibition of growth at 10 µM [31] of 13%. For the same molecule, the inhibition of growth at 10 µM [28] was 11% and the inhibition of growth at 10 µM [22] was 11%.
In the case of `COc1cc(NC(=O)CCSc2nc3ccc(Cl)cc3c(=O)n2-c2ccc(F)cc2)cc(OC)c1OC`, the inhibition of growth at 10 µM [32] is reported as 13%, the inhibition of growth at 10 µM [33] is reported as 19% and the inhibition of growth at 10 µM [2] is reported as 34%. It also gave an inhibition of growth at 10 µM [23] of 47%, an inhibition of growth at 10 µM [3] of 30% and an inhibition of growth at 10 µM [34] of 16%. The inhibition of growth at 10 µM [4] was 22%, the inhibition of growth at 10 µM [5] was 88% and the inhibition of growth at 10 µM [35] was 16%. For the same molecule, the inhibition of growth at 10 µM [7] was 24%, the inhibition of growth at 10 µM [9] was 34% and the inhibition of growth at 10 µM [10] was 59%. The inhibition of growth at 10 µM [11] was 28%, the inhibition of growth at 10 µM [36] was 25% and the inhibition of growth at 10 µM [24] was 18%. The inhibition of growth at 10 µM [12] was 42%, the inhibition of growth at 10 µM [37] was 18% and the inhibition of growth at 10 µM [25] was 16%. The inhibition of growth at 10 µM [13] was 51%, the inhibition of growth at 10 µM [14] was 12% and the inhibition of growth at 10 µM [16] was 19%. It also gave an inhibition of growth at 10 µM [38] of 10%, an inhibition of growth at 10 µM [17] of 51% and an inhibition of growth at 10 µM [39] of 17%. It also gave an inhibition of growth at 10 µM [26] of 21%, an inhibition of growth at 10 µM [18] of 20% and an inhibition of growth at 10 µM [19] of 27%. It also gave an inhibition of growth at 10 µM [27] of 28%, an inhibition of growth at 10 µM [20] of 24% and an inhibition of growth at 10 µM [28] of 22%. For the same molecule, the inhibition of growth at 10 µM [21] was 55%, the inhibition of growth at 10 µM [40] was 15% and the inhibition of growth at 10 µM [29] was 23%. For the same molecule, the inhibition of growth at 10 µM [30] was 21% and the inhibition of growth at 10 µM [41] was 25%.
